Data from patent US10493046B2, “5-hydroxytryptamine 1B receptor-stimulating agent for use as a promoter of satellite cells self-renewal and/or differentiation” (INSTITUT PASTEUR, priority 2015, dated 2019).
Where “and” joins values, the source holds several entries; their conditions need not be identical. Equal entries are not always repeated.

Columns and labels:
satellite cells [1] = assay: FACS-sorted satellite cells in vitro, compound added to the culture medium; type: cell-based, mouse; details: for Pax7+ (reserve, self-renewing) cells 14 days post-plating / Pax7 positive cells 4 days post-plating / Cells MyoG+ (Myogenin staining): compound added at 10 μM; for Pax7 positive cells 4 days post-plating: 2.000 cells per cm^2; for Cells MyoG+ (Myogenin staining): after 4 days
Protocol: (§1) Muscle dissection was done as previously described in cold DMEM. Muscles were then chopped with small scissors and put in a 50 ml Falcon tube with collagenase 0.1% and trypsin 0.25% at 37° C. with gentle agitation. After 20 minutes, the supernatant was collected in 20% serum placed on ice, and the collagenase/trypsin solution was added to continue the digestion. Once muscle was completely digested, the solution was filtrated using 40 μm cell strainers. Satellite cells were cultured in 1:1 DMEM-Glutamax (Gibco#41965-039):MCDB201 (Sigma#M6770) containing 20% serum FBS (Biowest S1860). Medium was filtered using 0.22 μm filters. Cells were plated on Matrigel coating (BD Biosciences#354234) and kept in an incubator (37° C., 5% CO2). […] The thus-obtained supernatant replaced FBS in the culture medium; the rest of the medium was unchanged.
Satellite cells were isolated from Tg:Pax7nGFP mice and cells were plated at 2.000 cells per cm^2. After overnight, vortioxetine was added at 10 μM. […] 14 days post-plating, a higher number of reserve cells (Pax7 positive cells that are quiescent in vitro) were detected in the vortioxetine-treated cells (9%±0.7) than in the PBS (3.5%±0.9, p=0.01), and when GR127935 inhibitor was added in vitro the number of reserve cells dropped (3.5%±0.9, p=0.9) (FIG. 11c). […] This difference in expression was lost when SC were plated with the GR127935 5-HT1 BR inhibitor (p=0.4) (FIGS. 11c-e). The positive effects of vortioxetine were lost when GR127935 was added in vitro together with vortioxetine (FIGS. 11c-e). These effects were however persistent when adding the 5-HT2 BR antagonist (FIGS. 11c-e). This means that the positive effects observed when plating vortioxetine in vitro with satellite cells is mediated via the 5HT1B receptor and not 5HT2B.
To test whether, 2 derivatives of vortioxetine, namely histidine-vortioxetine and pyrrolidinium-vortioxetine, could have similar or improved effect compared to the unmodified vortioxetine, the in vitro approach as described in section 2.2.3 above was used and the differentiation cascade of satellite cells was investigated by assessing the expression pattern of Pax7 (a marker of stemness and quiescence) and Myogenin (MyoG, a marker of differentiation) as described above in section 2.2.3. To do so, satellite cells from Tg:Pax7-nGFP were isolated by FACS and plated at 2.000 cells per cm^2 (seeded overnight). The following day, the vortioxetine, its derivatives, or the control PBS was added at 10 μM and the cells were fixed at the indicated time points.

Tibialis anterior = assay: Muscle regeneration after notexin injury of tibialis anterior; type: in vivo, mouse; details: antagonist together with fluoxetine; SC, differentiating cells, fiber size, calcium deposits, fibrosis, Gr1 and F4/80 cells
Protocol: Animals were anesthetized with ketamine (Imalgene1000 100 mg/Kg Merial) and Xylazine (Rompun2% 20 mg/Kg Bayer) prior to injury. Animals were hydrated and treated with analgesic (Buprenorphin Axience 0.3 mg/kg) twice a day for 4 d following injury. For the injury, mice were anesthetized as previously described and 10 μl of 12.5 μg/ml Notexin (Lotaxan) was injected in the Tibialis anterior. All protocols were reviewed by the Institut Pasteur, the competent authority, for compliance with the French and European regulations on Animal Welfare and with Public Health Service recommendations. This project has been reviewed and approved (#2013-0044) by the Institut Pasteur ethic committee (C2EA 89-CETEA).
Tibialis anterior (TA) was carefully dissected and snap frozen in liquid-nitrogen-cooled isopentane for a few minutes and stored at −80° C. prior to cryosectioning (10 μm sections). Sections were kept at room temperature overnight before staining. Sections were then rehydrated in PBS for 10 minutes and fixed in 10% formalin for 3 minutes. The sections were then routinely stained with haematoxylin and eosin (HE) using an automated stain machine or manually with red sirius.
(§2) Immunostaining was performed on cryosections fixed with 4% paraformaldehyde (PFA EMS#15710) in cold PBS, permeabilized with 0.5% Triton X-100 20 min at room temperature, washed, and blocked with 10% BSA for 30 min. Sections were incubated with primary antibodies overnight at 4° C. (see Table 1 below) and with Alexa-conjugated secondary antibodies 1/250 and Hoechst for 45 minutes. Sections were then analysed using an automated axioscan (Zeiss) or inverted Observer.Z1 Apotome (Zeiss). For apoptosis assessment, cells were collected in 2% serum, spun on polyD-lysine (Sigma-Aldrich#P6407), and immediately fixed with PFA 4%.
For image analysis (fibrosis quantification), ImageJ 1.46r software was using between 10 different photos randomly taken per section and 3 sections minimum per experimental group. The pictures were converted in a binary image and the pixel values then collected. For fibre size, the sections were immunostained with rabbit anti Laminin (Sigma-Aldrich #L9393) diluted at 1/200, overnight at 4° C. Secondary Donkey ant Rabbit 488 (DL488 JacksonImmuno #711486152) were used at 1/200 45 minutes at room temperature. The fibre perimeter was done automatically by using Pixcavator® software.

satellite cells [2] = assay: Satellite cell (SC) number in tibialis anterior of treated mice (histological count or FACS cytometry); type: in vivo, mouse; details: for Number of satellite cells per TA by cytometry: Tg:Pax7nGFP mice
Protocol: For satellite cell counting, only the tibialis anterior muscle was dissected and digested as described earlier, and the totality of the tube was analysed to assess the number of satellite cells per muscle. FACS analysis was done using a FACSasia (Beckman). All analyses and quantitation were performed using Summit v4.3 software from DakoCytomation and FloJo software. […]
In order to count the number of satellite cells, the tibialis anterior (TA) of Tg:Pax7nGFP mice were digested and analysed by FACS in placebo and vortioxetine (12 days, 20 mg/Kg) treated mice. […] After 3 weeks of vortioxetine treatment, the number of satellite cells was even higher (9351 satellite cells±706, p=0.0079) but no statistically significant differences were found between 12 days and 3 weeks of treatment (p=0.15).

satellite cells [3] = assay: Satellite cells in vitro in plasma of treated mice (live videomicroscopy, immunostaining); type: cell-based, mouse; details: plasma from fluoxetine-treated mice plus MDL100907
Protocol: as §1
Cells isolated by FACS were plated overnight on a 24-well glass bottom plate (P24G-0-10-F; MatTek) coated with matrigel (BD Biosciences#354234) and placed in an incubator in pre-equilibrated medium (1:1 DMEM Glutamax: MCDB [Sigma-Aldrich], 20% FCS (Biowest S1860). The plate was then incubated at 37° C., 5% CO2 (Zeiss, Pecon). A Zeiss Observer.Z1 connected with a LCI PInN 10×/0.8 W phaseII objective and AxioCam camera piloted with AxioVision was used. Cells were filmed for up to 5 days, and images were taken every 30 min with brightfield and phase filters and MozaiX 3×3 (Zeiss). Raw data were transformed and presented as a video.
Those results were confirmed in vitro (FIG. 7a). […] This difference was lost when SC were plated with GR127935 (p=0.4) (FIG. 7e). The faster exit of quiescence and higher division rates were also lost when adding GR127935 in vitro (FIGS. 7f,g). The effects of the plasma from fluoxetine-treated animals were persistent when adding MDL100907 (FIGS. 7b-g).

satellite cells [4] = assay: Satellite cell (SC) number in tibialis anterior of treated mice (histological count or FACS cytometry); type: in vivo, mouse
vessels [5] = assay: Vessel number in tibialis anterior of treated mice (Flk1GFP/+ or CD31 immunostaining); type: in vivo, mouse
Protocol: as §2
Throughout the study, focus was made on the tibialis anterior (TA). In skeletal muscle, SC are central for muscle repair. […] SC are localized close to capillaries and angiogenesis is known to be crucial for muscle repair SC survival with cellular interplays between vessel cells and SC. The number of vessels was therefore quantified. In control Flk1^GFP/+ mouse (placebo), the number of vessels was of 870±213.1 vessels per mm^2 and increased after 3 weeks of I.P treatment (1103±110.2 vessels per mm^2), and even more after 6 weeks (1384±175.3 vessels per mm^2, p=0.008) (FIG. 2e). Neovessels presented with normal histological appearance associating a basal lamina and a permeable lumen sometimes containing red blood cells. […] 841±137 CD31+ cells per mm^2 were counted in the placebo-treated mice vs. 2260±361 CD31+ cells per mm^2 in the fluoxetine-treated mice, p=0.008 (FIG. 2t-v), confirming the previous observation.
In order to investigate the effect of vortioxetine on vessels number, intra peritoneal (I.P) administration of 20 mg/kg of vortioxetine was performed for either 12 days, 3 or 6 weeks to C57Bl/6 mice (FIG. 10a). The number of CD31+ cells was counted by immunostaining. The number of vessels in the placebo is (863.5±115.6 vessels per mm^2) and increases after 12 days of I.P treatment (2274±926 vessels per mm^2, p=0.03), and even more after 3 weeks (2847±705 vessels per mm^2, p=0.02) (FIG. 10b). However, there was no statistically significant differences between 12 days and 3 weeks of treatment (p=0.49). Neovessels display a normal histological appearance associated with a basal lamina and a permeable lumen sometimes containing red blood cells. The daily administration of vortioxetine IP might cause unwanted peritoneal inflammation that could interfere with angiogenesis since inflammation and neovascularization are intertwined in some models. Vortioxetine was therefore administered per os (P.O) for 12 days: a similar increase in the number of vessels was observed (2451±595 vessels per mm^2 p=0.028, FIG. 10c). To further confirm those results, vortioxetine will be administered to Flk1^GFP/+ mice P.O and I.P for 12 days, and an ex vivo Matrigel angiogenesis assay and plasma from vortioxetine treated mice will be used on HUVEC (endothelial cells).

vessels [6] = assay: as above; type: in vivo, mouse; details: vortioxetine I.P 12 days and PBS in osmotic pump

In the case of `CCCOc1ccc2[nH]cc(C3=CCNCC3)c2n1` [5-HT1B agonist], the “Effect of direct addition on differentiation and self-renewal of SC” value (satellite cells [1]; direct addition in the culture media, Pax7+ and Myogenin+ cells) is reported as “triggered the same effect as the addition of plasma from fluoxetine-treated mice”.
In the case of `COc1cccc([C@H](O)C2CCN(CCc3ccc(F)cc3)CC2)c1OC` [MDL100907], the “Effects of vortioxetine when adding the 5-HT2 BR antagonist” value (satellite cells [1]; 5-HT2 BR antagonist together with vortioxetine 10 μM) is reported as “persistent”, the “Effect of the antagonist on the beneficial effects of fluoxetine after injury” value (Tibialis anterior) is reported as “did not suppress the beneficial effects of fluoxetine” and the “Inhibition of vortioxetine effects on vessels and SC number by the antagonist” value (satellite cells [2]; MDL100907 together with vortioxetine) is reported as “No inhibition of vortioxetine effects was observed”. For the same compound, the “Effects of the plasma from fluoxetine-treated animals when adding MDL100907” value (satellite cells [3]) was “persistent” and the “Inhibition of fluoxetine effects on SC and vessel number by the antagonist” value (satellite cells [4]; antagonist together with fluoxetine treatment) was “no inhibition of fluoxetine effects were observed”.
For `Cc1ccc(Sc2ccccc2N2CC[N+]3(CCCC3)CC2)c(C)c1` [pyrrolidinium-vortioxetine], the “Increase in number of self-renewing cells compared with vortioxetine alone” value (satellite cells [1]; 10 μM, 14 days post-plating) was 20%, the “Pax7+ (reserve, self-renewing) cells 14 days post-plating” value (satellite cells [1]) was 12.5±1.9% and the “Pax7 positive cells 4 days post-plating” value (satellite cells [1]) was 25.25±4%. For the same compound, the “Cells MyoG+ (Myogenin staining)” value (satellite cells [1]) was 19.75±0.47% and the “Number of SCs in the TA vs PBS” value (satellite cells [2]; 20 mg/Kg IP for 12 days, TgPax7nGFP mice) was “doubling”.
`Cc1ccc(Sc2ccccc2N2CCNCC2)c(C)c1` [vortioxetine, 1-[2-(2,4-Dimethylphenylsulfanyl)phenyl]piperazine] was tested, and the “Pax7+ (reserve, self-renewing) cells 14 days post-plating” value (satellite cells [1]) was 9% and 10.5±0.65%, the “Pax7 positive cells 4 days post-plating” value (satellite cells [1]) was 23% and 23.7±2.78% and the “Cells MyoG+ (Myogenin staining)” value (satellite cells [1]) was 34.5±2.5%. For the same compound, the “MyoD (activation marker) expression between conditions” value (satellite cells [1]; vortioxetine 10 μM vs PBS vs GR127935) was “did not differ at any time investigated”, the “Myogenin (MyoG) expression increase” value (satellite cells [1]; vortioxetine 10 μM, 4 days post-plating) was 2 times increase and the “Number of vessels (CD31+)” value (vessels [5]; vortioxetine 20 mg/kg I.P, 3 weeks, C57Bl/6 mice) was 2847±705 vessels per mm^2. The “Number of vessels (CD31+)” value (vessels [5]; vortioxetine 20 mg/kg I.P, 12 days, C57Bl/6 mice) was 2274±926 vessels per mm^2, the “Number of vessels (CD31+)” value (vessels [5]; vortioxetine per os (P.O), 12 days) was 2451±595 vessels per mm^2 and the “Number of satellite cells per TA by cytometry” value (satellite cells [2]; vortioxetine 3 weeks) was 9351 satellite cells. The “Number of satellite cells per TA by cytometry” value (satellite cells [2]; vortioxetine 12 days, 20 mg/Kg) was 8660 satellite cells, the “SC number after P.O administration vs I.P” value (satellite cells [2]; vortioxetine P.O at 20 mg/kg) was “a similar increase in SC number” and the Number of vessels (vessels [6]) was 2274±926 vessels per mm^2. For the same compound, the “SC increase by histological count on TA sections” value (satellite cells [4]; vortioxetine 12 days, 20 mg/Kg) was “two-fold increase”.
